Experimental data taken from patent US20080274149A1, “Encapsulation and Controlled Release of Biologically Active Ingredients with Enzymatically Degradable Microparticulate, Hyperbranched Polymers” (priority 2005, published 2008).

Assay: Stability in formulation: creatine in oil-in-water emulsion stored at 45° C.
Type: physicochemical
Procedure: 1.5% of the microcapsules from Example 4 were stirred into an oil-in-water emulsion and stored at T=45° C.

- creatine [%] (0 weeks): 100%
- creatine [%] (stored at T=45° C., 5 weeks): 40%
Structure (SMILES): CN(CC(=O)O)C(=N)N [Free creatine, creatine]
